In brackets after ≈: the same amount, converted by molar mass. Activity calls are given as the source filed them. No cut-off for these calls is given here.
Assays:
[1] = Inhibition of NF-kappaB in LPS-induced mouse RAW264.7 cells assessed as inhibition of NO production after 24 hrs; format: cell-based
RAW264.7 [2] = experiment: Cytotoxicity against mouse RAW264.7 cells by MTT colorimetric assay in presence of LPS; format: functional; conditions: read-out: ED50 (the source's name)
Jurkat = experiment: Induction of apoptosis in human Jurkat cells; format: functional, cell-based
T-cell = experiment: Induction of apoptosis in T cell leukemia; format: functional, cell-based
RAW264.7 [3] = experiment: Inhibition of NF-kappaB in LPS-induced mouse RAW264.7 cells assessed as inhibition of iNOS expression after 24 hrs; format: cell-based
[4] = Mus musculus, RAW264.7, 24 h, read-out: IC50

Structure (SMILES) | IC50 [1, 4] | EC50 (RAW264.7 [2]) | IC50 ([1]; raw264.7) | Activity (Jurkat) | Activity (T-cell) | Activity (RAW264.7 [3])
O=C1CC(CC(=O)NC2CCCCC2)CC(=O)N1 | > 30 µg/mL | > 30 µg/mL |  |  |  | 
CCCCCCSC(=O)CC1CC(=O)NC(=O)C1 | 15 µg/mL (≈ 55.3 µM) | > 30 µg/mL |  |  |  | 
O=C(O)CC1CC(=O)NC(=O)C1 | > 30 µg/mL | > 30 µg/mL |  |  |  | 
CCCCCCCCCCCCSC(=O)CC1CC(=O)N(CC)C(=O)C1 | 2 µg/mL (≈ 5.21 µM) | 20 µg/mL |  |  |  | 
O=C1CC(C/C=C/C(=O)c2cccc(OCc3ccccc3)c2)CC(=O)N1 | 3 µg/mL (≈ 8.26 µM) | 8 µg/mL |  |  |  | 
CCCCCCNC(=O)CC1CC(=O)NC(=O)C1 | > 30 µg/mL | > 30 µg/mL |  |  |  | 
C/C=C\C(C)=C\[C@@H](C)C(=O)C[C@H](O)CC1CC(=O)NC(=O)C1 |  |  | Active | Active | Active | Active
CCCCCCCCCCCCSC(=O)CC1CC(=O)N(C)C(=O)C1 | 2 µg/mL (≈ 5.41 µM) | 8 µg/mL |  |  |  | 
CC(C)(C)OC(=O)/C=C/CC1CC(=O)NC(=O)C1 | 30 µg/mL (≈ 118 µM) | > 30 µg/mL |  |  |  | 

Further lines, with some results ahead:

IC50 [1, 4] | Structure (SMILES) | EC50 (RAW264.7 [2]) | IC50 ([1]; raw264.7) | Activity (Jurkat) | Activity (T-cell) | Activity (RAW264.7 [3])
> 30 µg/mL | CCCCCCOC(=O)CC1CC(=O)NC(=O)C1 | > 30 µg/mL |  |  |  | 
1 µg/mL (≈ 2.81 µM) | CCCCCCCCCCCCSC(=O)CC1CC(=O)NC(=O)C1 | 15 µg/mL |  |  |  | 
> 30 µg/mL | CCCCCCCCCCCCOC(=O)CC1CC(=O)NC(=O)C1 | > 30 µg/mL |  |  |  | 
> 30 µg/mL | CCCCCCCCCCCCNC(=O)CC1CC(=O)NC(=O)C1 | 25 µg/mL |  |  |  | 

Reference: ChEMBL document CHEMBL1153302, “Synthesis and biological evaluation on novel analogs of 9-methylstreptimidone, an inhibitor of NF-kappaB” (Bioorg Med Chem Lett, 2009)
